Data: PMC6403271, “Characterization, mechanism of action and optimization of activity of a novel peptide-peptoid hybrid against bacterial pathogens involved in canine skin infections” (Scientific Reports, 2019)
≈ marks a conversion by molar mass, not a printed value. Read-outs that look alike come from different tables or passages of the source. Marks after values point to notes of the source that are not given here. Square brackets hold non-standard residues; d marks the D form. Peptide text beside a SMILES is read from it. N(1-naphthylmethyl)Gly = O=C(O)CNCc1cccc2ccccc12; 2Nal = N[C@@H](Cc1ccc2ccccc2c1)C(=O)O; d1Nal = N[C@H](Cc1cccc2ccccc12)C(=O)O; N(4-MeBn)Gly = Cc1ccc(CNCC(=O)O)cc1; dNle = CCCC[C@@H](N)C(=O)O; Nle = CCCC[C@H](N)C(=O)O; NBuGly = CCCCNCC(=O)O

Columns and labels:
MRSP C22963 = assay type: cell-based, Staphylococcus pseudintermedius
Summary of the method: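 Broth microdilution per CLSI M31-A3 on canine clinical isolates plus reference MRSP C22963, MSSA and P. aeruginosa 26314; 5 × 10^5 CFU/mL in MHB II with two-fold dilutions from 1 to 64 µg/ml. MIC = lowest concentration without visible growth after 18 hours at 37 °C; triplicates on two days.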

P. aeruginosa (26314) = assay type: cell-based, Pseudomonas aeruginosa
Summary of the method: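 Canine clinical isolate P. aeruginosa 26314 tested by CLSI broth microdilution at 5 × 10^5 CFU/mL in Mueller Hinton broth II against 2-fold peptide dilutions of 1-64 μg/ml. MIC = lowest concentration without visible growth after 18 h at 37 °C; triplicates on two days.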

[1] = assay type: cell-based, human; conditions: human
human red blood cells = assay type: cell-based; conditions: for EC50: red cells of human, 1 h
E. coli, 30235 = assay type: cell-based, Escherichia coli; conditions: 30235, 18 h
From the text: For antibacterial spectrum the following strains were used: Corynebacterium auriscanis, 31551, (54 C6, dog, ear, 2013); Enterococcus faecalis, 27404, (17 C7, dog, wound, 2011); Enterococcus faecium, 30951, (24 C1, dog, ear, 2013); Streptococcus canis, 26740-1, (14 H1, dog, ear, 2010); Staphylococcus aureus, 27266, (16 G9, dog, skin, 2010); Staphylococcus aureus, 27266, (16 G9, dog, skin, 2010); Staphylococcus pseudintermedius 22963, (3 B9, dog, 2007). Acinetobacter baumannii, 27065, (16 D1, dog, wound, 2010); E. coli, 30235, 23 A6, dog, wound, 2012; Klebsiella pneumoniae, 26233, (11 H5, dog, wound, 2010); Pasteurella canis, 31096, (24 C8, dog, skin, 2013); Proteus mirabilis, 25178, (9 A4, dog, ear, 2009); Pseudomonas aeruginosa 26314, 12 C5, dog, urine, 2010). MIC determination was performed by broth microdilution according to the Clinical and Laboratory Standard Institute (CLSI, […]-A3, 2008)[62]. In brief, each bacterial strain was diluted to concentration of 5 × 10^5 CFU/mL in Mueller Hinton broth II (MHB II) media (Oxoid) and added to a two-fold serial dilution of peptides and peptide-peptoid hybrids concentrations ranging from 1 to 64 μg/ml in 96-well plates (Nunc Internationals, Rochester, NY). The MICs were determined as a lowest concentration showing no visible growth after incubation for 18 hours at 37 °C. Experiments were performed in triplicates on two different days.

[2] = test system: S. pseudintermedius strains; assay type: cell-based, Staphylococcus pseudintermedius; conditions: for MIC S. pseudintermedius strain 26071 / MIC S. pseudintermedius strain 26092-2 / MIC S. pseudintermedius strain 26959 / MIC S. pseudintermedius strain 27364 / MIC S. pseudintermedius strain 27382 / MIC S. pseudintermedius strain 31524 / MIC S. pseudintermedius strain 33228 / MIC S. pseudintermedius strain 35890 / MIC S. pseudintermedius strain 37526-1 / MIC S. pseudintermedius strain 37535-1 / MIC S. pseudintermedius strain 38637: 18 h
Protocol: Activity of B1 was tested on 50P. aeruginosa isolates and 57S. pseudintermedius isolates (including 7 MRSP) that had been isolated in the diagnostic laboratory Sund Vet Diagnostik (University of Copenhagen) from various infections in dogs between 2009 and 2011. Representative MRSP (C22963), MSSA, and P. aeruginosa (26314) were used for testing the first set of B1 analogues.
For testing the selectivity of 23 and 26 against clinical isolates of S. pseudintermedius vs S. aureus the following strains were used.
MIC determination was performed by broth microdilution according to the Clinical and Laboratory Standard Institute (CLSI, M31-A3, 2008)[62]. In brief, each bacterial strain was diluted to concentration of 5 × 10^5 CFU/mL in Mueller Hinton broth II (MHB II) media (Oxoid) and added to a two-fold serial dilution of peptides and peptide-peptoid hybrids concentrations ranging from 1 to 64 µg/ml in 96-well plates (Nunc Internationals, Rochester, NY). The MICs were determined as a lowest concentration showing no visible growth after incubation for 18 hours at 37 °C. Experiments were performed in triplicates on two different days.

| Structure (SMILES) | MIC Staphylococcus pseudintermedius (MRSP C22963; 18 h) [µg/mL] | Minimum Inhibitory Concentration MRSP C22963 (MRSP C22963; Table 1) | hemolysis at 1 h, 150 µM [1] [%] | Haemolysis EC10 (human red blood cells) [µM] | EC50 (human red blood cells) [µM] | MIC E. coli (E. coli, 30235) [µg/mL] | Minimum Inhibitory Concentration P. aeruginosa (26314) (P. aeruginosa (26314); Table 1) [µg/mL] | MIC S. pseudintermedius strain 26071 [2] [µg/mL] | MIC S. pseudintermedius strain 26092-2 [2] [µg/mL] | MIC S. pseudintermedius strain 26959 [2] [µg/mL] | MIC S. pseudintermedius strain 27364 [2] [µg/mL] | MIC S. pseudintermedius strain 27382 [2] [µg/mL] | MIC S. pseudintermedius strain 31524 [2] [µg/mL] | MIC S. pseudintermedius strain 33228 [2] [µg/mL] | MIC S. pseudintermedius strain 35890 [2] [µg/mL] | MIC S. pseudintermedius strain 37526-1 [2] [µg/mL] | MIC S. pseudintermedius strain 37535-1 [2] [µg/mL] | MIC S. pseudintermedius strain 38637 [2] [µg/mL] | other results |
| --- | --- | --- | --- | --- | --- | --- | --- | --- | --- | --- | --- | --- | --- | --- | --- | --- | --- | --- | --- |
| CCCCN(CC(=O)N[C@@H](CCCCN)C(=O)N(CC(=O)N(CC(=O)N(CC(N)=O)Cc1cccc2ccccc12)Cc1ccc(C)cc1)Cc1cccc2ccccc12)C(=O)[C@H](CCCCN)NC(=O)[C@@H](N)CCCCN [B1, Lys-Lys-(NBu)Gly-Lys-(N1-Nal)Gly-(N4-MeBn)Gly-(N1-Nal)Gly] (H-KK[NBuGly]K[N(1-naphthylmethyl)Gly][N(4-MeBn)Gly][N(1-naphthylmethyl)Gly]-NH2) | 2 (≈ 1.87 µM) | 2–4^b µg/ml | 32 | 64 | 230 | 64 (≈ 59.8 µM) |  |  |  |  |  |  |  |  |  |  |  |  | Minimum Inhibitory Concentration P. aeruginosa (26314) (P. aeruginosa (26314); 26314, 18 h): 8 to 16 µg/mL; MICs against a panel of 57 S. pseudintermedius isolates from canine infections ([2]; irrespective of methicillin resistance (7 MRSP, 50 MSSP)): 2 to 4 µg/mL |
| CCCC[C@H](NC(=O)[C@H](CCCCN)NC(=O)[C@H](CCCCN)NC(=O)[C@@H](N)CCCCN)C(=O)N[C@@H](Cc1ccc2ccccc2c1)C(=O)N[C@@H](Cc1ccccc1)C(=O)N[C@@H](Cc1ccc2ccccc2c1)C(N)=O [Compound 23, Lys-Lys-Lys-Nle-(2-Nal)Ala-Phe-(2-Nal)Ala] (H-KKK[Nle][2Nal]F[2Nal]-NH2) | 4 (≈ 3.79 µM) |  | 59 | 14 | 104 | 32 (≈ 30.3 µM) | 8 | 8 (≈ 7.57 µM) | 8 (≈ 7.57 µM) | 4 (≈ 3.79 µM) | 2 (≈ 1.89 µM) | 4 (≈ 3.79 µM) | 8 (≈ 7.57 µM) | 2 (≈ 1.89 µM) | 2 (≈ 1.89 µM) | 1 to 2 | 16 (≈ 15.1 µM) | 16 (≈ 15.1 µM) | Minimum Inhibitory Concentration MRSP C22963 (MRSP C22963; 18 h): 2 to 4 µg/mL |
| CCCC[C@@H](NC(=O)[C@H](CCCCN)NC(=O)[C@H](CCCCN)NC(=O)[C@@H](N)CCCCN)C(=O)N[C@H](Cc1cccc2ccccc12)C(=O)N[C@H](Cc1ccccc1)C(=O)N[C@H](Cc1cccc2ccccc12)C(N)=O [Compound 26, Lys-Lys-Lys-nle-(1-Nal)ala-phe-(1-Nal)ala] (H-KKK[dNle][d1Nal][dF][d1Nal]-NH2; N-terminus assumed) | 4 (≈ 3.79 µM) | 4 to 8 µg/mL | 56 |  | 63 | 32 (≈ 30.3 µM) | 8 | 4 (≈ 3.79 µM) | 4 (≈ 3.79 µM) | 4 (≈ 3.79 µM) | 2 (≈ 1.89 µM) | 2 (≈ 1.89 µM) | 32 (≈ 30.3 µM) | 2 (≈ 1.89 µM) | 4 (≈ 3.79 µM) | 4 (≈ 3.79 µM) | 16 (≈ 15.1 µM) | 8 (≈ 7.57 µM) |  |
